Results from patent US11814652B2, “Pluripotent stem cell differentiation-promoting agent” (Oriental Yeast Co., Ltd., priority 2018, dated 2023).

Assays:
[1] = system: iPS cells 201B7 strain; experiment: Cell number in mesodermal differentiation-induction after undifferentiated culture with β-NMN (Example 6); format: cell-based, human; details: β-NMN 0.25 or 1 mM in culture medium for iPS cells before mesodermal differentiation-induction; 7th day after seeding; versus no β-NMN
Experimental: The effects of culturing in the presence of β-NMN before induction of differentiation on the mesodermal differentiation-induction of iPS cells was examined. As the iPS cells, the 201B7 strain was used. The iPS cells were cultured in a culture dish in the same manner as in Example 5, and when the confluent reached 70 to 80%, the iPS cells were detached from the culture dish and collected. The collected iPS cells were seeded at 1×10^5 cells/well in a 24-well plate coated with Matrigel (manufactured by Corning Incorporated) according to the manufacturer's protocol. The cells in the 24-well plate were cultured for 1 day in a culture medium prepared by removing β-NMN from the culture medium when culturing in the culture dish and adjusting to have a final concentration of Rock inhibitor of 10 μM. From the 1st day after seeding, the medium was replaced every day with a culture medium for mesodermal differentiation-induction of “STEMdiff Trilineage Differentiation kit” (manufactured by STEMCELL Technologies). The cells of the 7th day after seeding were sampled and the cell numbers were counted. […]

[2] = system: iPS cells 253G1 strain; experiment: Flow cytometry of Sox17/CXCR4 endodermal markers, differentiation-induction in medium with β-NMN (Example 4); format: cell-based; details: endodermal differentiation-inducing medium with β-NMN 0.1, 0.25 or 1 mM; 5th or 7th day; versus absence of β-NMN
Experimental: The effects of β-NMN on the induction of endodermal differentiation of iPS cells were examined. As the iPS cells, the 253G1 strain was used. The iPS cells were seeded in a 24-well plate coated with Matrigel (manufactured by Corning Incorporated) according to the manufacturer's protocol at 3×10^5 cells/well. The cells in the 24-well plate were cultured in a culture medium for iPS cells adjusted to have a final concentration of Rock inhibitor of 10 μM for 1 day. From the 1st day after seeding, the culture medium was replaced with a culture medium prepared by adjusting an endoderm differentiation-inducing culture medium of “STEMdiff Trilineage Differentiation kit” (manufactured by STEMCELL Technologies) to have a final concentration of β-NMN of 0, 0.1, 0.25, or 1 mM for 1 day. […] Then, the cells were stained with a fluorescence-labeled anti-Sox17 antibody (manufactured by Becton, Dickinson and Company, clone P7-969) and a fluorescence-labeled anti-CXCR4 antibody (manufactured by Biolegend, clone 12G5). After washing the stained cells, a flow cytometer “FACS caliber” (manufactured by Becton, Dickinson and Company) was used to analyze the fluorescence intensity of the anti-Sox17 antibody and the fluorescence intensity of the anti-CXCR4 antibody in each sample. […]

[3] = system: Human adipose tissue-derived mesenchymal stem cells; experiment: Alizarin Red S staining after bone differentiation-induction of mesenchymal stem cells grown with β-NMN (Example 8); format: cell-based; details: growth medium supplemented with 0.1 mM or 0.25 mM of β-NMN; 14 days after initiation of bone differentiation-induction; compared with 0 mM
Description: The effects of culturing in the presence of β-NMN before bone differentiation-induction of mesenchymal stern cells were examined. Human adipose tissue-derived mesenchymal stem cells (manufactured by Lonza, Cat #PT5006) were used as the mesenchymal stem cells. As a growth medium, a culture medium prepared by appropriately adding β-MNM to “MSCGM Bullet Kit” (manufactured by Lonza, Cat #PT3001) was used. As a bone differentiation-inducing culture medium, a culture medium prepared by adjusting an α-MEM culture medium to have a final concentration of fetal bovine serum of 10% by volume, a final concentration of dexamethasone of 10 nM, a final concentration of β-glycerophosphate of 10 mM, a final concentration of ascorbic acid of 50 μg/mL, and a final concentration of penicillin-streptomycin of 0.1%. The mesenchymal stem cells were seeded in a culture dish at 5×10^3 cells/cm^2 and statically cultured in a growth culture medium not containing β-MNM at 37° C., 5% by volume (CO2) for 1 day. From one day after seeding, the culture medium was replaced every 2 days with a growth culture medium adjusted to have a final concentration of β-MNM of 0, 0.1, or 0.25 mM. Further, when the cell density in the culture dish reached 80 to 90% of the confluent, the cells were passaged. […]

NC(=O)c1ccc[n+]([C@@H]2O[C@H](COP(=O)([O-])O)[C@@H](O)[C@H]2O)c1 [β-NMN, β-nicotinamide mononucleotide]
number of the cells [1]: larger
ratio of Sox17-positive CXCR4-positive cells [2]: no clear difference
calcium deposition (Alizarin Red S staining) [3]: strongly observed
